Data published in patent publication US11891365B2, “3-alkyl-4-amido-bicyclic [4,5,0] hydroxamic acids as HDAC inhibitors” (Valo Health, Inc., priority 2015, dated 2024).

Biological target: T1, Full length human recombinant HDAC6 protein (Homo sapiens, UniProt Q9UBN7)
T1 sequence (Q9UBN7 1-1215): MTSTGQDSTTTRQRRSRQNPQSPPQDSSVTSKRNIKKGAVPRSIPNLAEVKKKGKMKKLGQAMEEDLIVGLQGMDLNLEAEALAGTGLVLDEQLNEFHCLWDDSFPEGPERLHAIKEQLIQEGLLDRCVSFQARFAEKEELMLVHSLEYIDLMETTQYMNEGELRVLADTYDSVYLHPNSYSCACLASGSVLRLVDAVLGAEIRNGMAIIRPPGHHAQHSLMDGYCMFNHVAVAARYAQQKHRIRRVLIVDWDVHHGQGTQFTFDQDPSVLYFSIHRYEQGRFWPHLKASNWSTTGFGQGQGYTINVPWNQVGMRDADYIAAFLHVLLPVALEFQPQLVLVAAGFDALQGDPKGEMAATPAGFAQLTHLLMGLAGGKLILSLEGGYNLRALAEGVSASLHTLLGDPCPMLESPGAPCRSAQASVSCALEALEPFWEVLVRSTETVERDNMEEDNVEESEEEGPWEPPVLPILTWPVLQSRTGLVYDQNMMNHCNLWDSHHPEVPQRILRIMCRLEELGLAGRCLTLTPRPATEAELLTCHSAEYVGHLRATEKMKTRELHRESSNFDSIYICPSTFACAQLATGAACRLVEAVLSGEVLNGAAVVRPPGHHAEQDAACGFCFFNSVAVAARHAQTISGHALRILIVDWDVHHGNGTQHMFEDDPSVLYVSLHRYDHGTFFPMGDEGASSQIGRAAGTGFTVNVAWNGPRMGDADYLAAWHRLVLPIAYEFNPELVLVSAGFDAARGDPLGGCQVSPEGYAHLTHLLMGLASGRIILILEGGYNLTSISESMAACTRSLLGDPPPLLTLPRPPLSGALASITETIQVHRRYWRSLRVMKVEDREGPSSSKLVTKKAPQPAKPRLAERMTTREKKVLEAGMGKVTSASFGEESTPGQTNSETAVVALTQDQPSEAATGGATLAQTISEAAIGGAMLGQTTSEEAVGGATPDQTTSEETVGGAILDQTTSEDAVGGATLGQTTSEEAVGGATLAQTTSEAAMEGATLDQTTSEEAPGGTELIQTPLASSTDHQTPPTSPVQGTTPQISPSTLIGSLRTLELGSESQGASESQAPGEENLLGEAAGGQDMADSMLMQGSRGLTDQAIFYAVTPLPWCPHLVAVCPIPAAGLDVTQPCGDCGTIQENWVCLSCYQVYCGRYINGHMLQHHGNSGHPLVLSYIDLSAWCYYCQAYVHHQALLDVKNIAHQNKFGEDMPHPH
Assay: In vitro histone deacetylase assay: enzymatic HDAC6 electrophoretic mobility shift assay
Type: biochemical
Conditions: 1 nM enzyme, 2 μM peptide substrate RHKK(Ac)-NH2, 25° C., 12 concentrations; read-out: Inhibitory Concentration (IC50) Values against HDAC6, Activity Range

IC50 [nM]	SMILES
≤ 100	O=C(NO)c1ccc2c(c1)OCCN(C(=O)C1CCC3(CCNCC3)C1)C2 (centres unmarked) [N-hydroxy-4-(8-azaspiro[4.5]decane-2-carbonyl)-2,3,4,5-tetrahydrobenzo[f][1,4]oxazepine-8-carboxamide]
≤ 100	C[C@H]1COc2cc(C(=O)NO)ccc2CN1C(=O)[C@@H]1CCCOC1 [(S)-N-hydroxy-3-methyl-4-((R)-tetrahydro-2H-pyran-3-carbonyl)-2,3,4,5-tetrahydrobenzo[f][1,4]oxazepine-8-carboxamide]
> 500	O=C(NO)c1ccc2c(c1)OCCN(C(=O)C(c1ccccc1)C1CCCCC1)C2 (centres unmarked) [4-(2-cyclohexyl-2-phenylacetyl)-N-hydroxy-2,3,4,5-tetrahydrobenzo[f][1,4]oxazepine-8-carboxamide]
≤ 100	C[C@H]1COc2cc(C(=O)NO)ccc2CN1C(=O)C1CC2CCC(C1)O2 (stereo partly drawn) [(3S)-4-(8-oxabicyclo[3.2.1]octane-3-carbonyl)-N-hydroxy-3-methyl-2,3,4,5-tetrahydrobenzo[f][1,4]oxazepine-8-carboxamide]
100 to 500	CCC(C(=O)N1CCOc2cc(C(=O)NO)ccc2C1)c1ccccc1 (centres unmarked) [N-hydroxy-4-(2-phenylbutanoyl)-2,3,4,5-tetrahydrobenzo[f][1,4]oxazepine-8-carboxamide]
100 to 500	CC(C)(C(=O)N1CCOc2cc(C(=O)NO)ccc2C1)c1ccc(F)cc1 [4-(2-(4-fluorophenyl)-2-methylpropanoyl)-N-hydroxy-2,3,4,5-tetrahydrobenzo[f][1,4]oxazepine-8-carboxamide]
100 to 500	CC1(C)CC(C(=O)N2CCOc3cc(C(=O)NO)ccc3C2)CCO1 (centres unmarked) [4-(2,2-dimethyltetrahydro-2H-pyran-4-carbonyl)-N-hydroxy-2,3,4,5-tetrahydrobenzo[f][1,4]oxazepine-8-carboxamide]
100 to 500	O=C(NO)c1ccc2c(c1)OCCN(C(=O)C(OCC(F)(F)F)c1ccccc1)C2 (centres unmarked) [N-hydroxy-4-(2-phenyl-2-(2,2,2-trifluoroethoxy)acetyl)-2,3,4,5-tetrahydrobenzo[f][1,4]oxazepine-8-carboxamide]
≤ 100	CC1CC(C(=O)N2Cc3ccc(C(=O)NO)cc3OC[C@@H]2C)CC(C)O1 (stereo partly drawn) [(3S)-4-(2,6-dimethyltetrahydro-2H-pyran-4-carbonyl)-N-hydroxy-3-methyl-2,3,4,5-tetrahydrobenzo[f][1,4]oxazepine-8-carboxamide]
≤ 100	Cn1cccc1C(=O)N1CCOc2cc(C(=O)NO)ccc2C1 [N-hydroxy-4-(1-methyl-1H-pyrrole-2-carbonyl)-2,3,4,5-tetrahydrobenzo[f][1,4]oxazepine-8-carboxamide]
≤ 100	O=C(NO)c1cnc2c(n1)OCCN(C(=O)C1CCCCC1)C2 [8-(cyclohexanecarbonyl)-N-hydroxy-6,7,8,9-tetrahydropyrazino[2,3-f][1,4]oxazepine-3-carboxamide]
≤ 100	C[C@H]1COc2cc(C(=O)NO)ccc2CN1C(=O)C1CCCCC1 [(S)-4-(cyclohexanecarbonyl)-N-hydroxy-3-methyl-2,3,4,5-tetrahydrobenzo[f][1,4]oxazepine-8-carboxamide]
≤ 100	C[C@H]1c2ccc(C(=O)NO)cc2OCCN1C(=O)[C@H]1CCOC1 [(S)-N-hydroxy-5-methyl-4-((S)-tetrahydrofuran-3-carbonyl)-2,3,4,5-tetrahydrobenzo[f][1,4]oxazepine-8-carboxamide]
100 to 500	O=C(NO)c1ccc2c(n1)OCCN(C(=O)C1CCCCC1)C2 [4-(cyclohexanecarbonyl)-N-hydroxy-2,3,4,5-tetrahydropyrido[3,2-f][1,4]oxazepine-8-carboxamide]
100 to 500	CC(C)[C@@H]1CN(C=O)Cc2ccc(C(=O)NO)cc2O1 [(R)-4-formyl-N-hydroxy-2-isopropyl-2,3,4,5-tetrahydrobenzo[f][1,4]oxazepine-8-carboxamide]
≤ 100	CC(=O)N1CCCC(C(=O)N2CCOc3cc(C(=O)NO)ccc3C2)C1 (centres unmarked) [4-(1-acetylpiperidine-3-carbonyl)-N-hydroxy-2,3,4,5-tetrahydrobenzo[f][1,4]oxazepine-8-carboxamide]
≤ 100	O=C(NO)c1ccc2c(c1)OCCN(C(=O)C1CCOC1)C2 (centres unmarked) [N-hydroxy-4-(tetrahydrofuran-3-carbonyl)-2,3,4,5-tetrahydrobenzo[f][1,4]oxazepine-8-carboxamide]
≤ 100	C[C@H]1COc2cc(C(=O)NO)ccc2CN1C(=O)C1COC1 [(S)-N-hydroxy-3-methyl-4-(oxetane-3-carbonyl)-2,3,4,5-tetrahydrobenzo[f][1,4]oxazepine-8-carboxamide]
100 to 500	O=C(NO)c1ccc2c(c1)OCCN(C(=O)c1ccc(N3CCOCC3)cc1)C2 [N-hydroxy-4-(4-morpholinobenzoyl)-2,3,4,5-tetrahydrobenzo[f][1,4]oxazepine-8-carboxamide]
100 to 500	O=C(NO)c1ccc2c(c1)OCCN(C(=O)C(c1ccccc1)N1CCC(O)CC1)C2 (centres unmarked) [N-hydroxy-4-(2-(4-hydroxypiperidin-1-yl)-2-phenylacetyl)-2,3,4,5-tetrahydrobenzo[f][1,4]oxazepine-8-carboxamide]
≤ 100	C[C@H]1CN(C=O)Cc2ccc(C(=O)NO)cc2O1 [(S)-4-formyl-N-hydroxy-2-methyl-2,3,4,5-tetrahydrobenzo[f][1,4]oxazepine-8-carboxamide]
> 500	C[C@@H]1c2ccc(C(=O)NO)cc2OCCN1C(=O)C1(C)CCC1 [(R)-N-hydroxy-5-methyl-4-(1-methylcyclobutane-1-carbonyl)-2,3,4,5-tetrahydrobenzo[f][1,4]oxazepine-8-carboxamide]
100 to 500	CC(C)(C(=O)N1CCOc2cc(C(=O)NO)ccc2C1)c1cccnc1 [N-hydroxy-4-(2-methyl-2-(pyridin-3-yl)propanoyl)-2,3,4,5-tetrahydrobenzo[f][1,4]oxazepine-8-carboxamide]
≤ 100	C[C@H]1c2ccc(C(=O)NO)cc2OCCN1C(=O)C1CCOCC1 [(S)-N-hydroxy-5-methyl-4-(tetrahydro-2H-pyran-4-carbonyl)-2,3,4,5-tetrahydrobenzo[f][1,4]oxazepine-8-carboxamide]
≤ 100	O=C(NO)c1ccc2c(c1)OCCN(C(=O)C1(Cc3ccccc3)CC1)C2 [4-(1-benzylcyclopropane-1-carbonyl)-N-hydroxy-2,3,4,5-tetrahydrobenzo[f][1,4]oxazepine-8-carboxamide]
≤ 100	COC1(C(=O)N2Cc3ccc(C(=O)NO)cc3OC[C@@H]2C)CCC1 [(S)-N-hydroxy-4-(1-methoxycyclobutane-1-carbonyl)-3-methyl-2,3,4,5-tetrahydrobenzo[f][1,4]oxazepine-8-carboxamide]
100 to 500	O=C(NO)c1ccc2c(c1)OCCN(C(=O)C1CCCC13CCNC3)C2 (centres unmarked) [N-hydroxy-4-(2-azaspiro[4.4]nonane-6-carbonyl)-2,3,4,5-tetrahydrobenzo[f][1,4]oxazepine-8-carboxamide]
≤ 100	O=C(NO)c1ccc2c(c1)OCCN(C(=O)C1COC1)C2 [N-hydroxy-4-(oxetane-3-carbonyl)-2,3,4,5-tetrahydrobenzo[f][1,4]oxazepine-8-carboxamide]
≤ 100	COC1(C(=O)N2Cc3ccc(C(=O)NO)cc3OC[C@@H]2C)CCCCC1 [(S)-N-hydroxy-4-(1-methoxycyclohexane-1-carbonyl)-3-methyl-2,3,4,5-tetrahydrobenzo[f][1,4]oxazepine-8-carboxamide]
